#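 Abbreviation: GI50, concentration required for 50% inhibition of growth. TGI is the concentration that stops growth completely.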
# Columns and labels:
# Assay in all cases: DTP human tumour cell line panel, 384-well format
# [1] = test system: 786-0 renal
# [2] = test system: A498 renal
# [3] = test system: A549 NSCLC
# [4] = test system: ACHN renal
# [5] = test system: BT-549 breast
# [6] = test system: CAKI-1 renal
# [7] = test system: CCRF-CEM leukemia
# [8] = test system: COLO 205 colon
# [9] = test system: DU-145 prostate
# [10] = test system: HCC-2998 colon
# [11] = test system: HCT-116 colon
# [12] = test system: HCT-15 colon
# [13] = test system: HL-60(TB) leukemia
# [14] = test system: HOP-62 NSCLC
# [15] = test system: HOP-92 NSCLC
# [16] = test system: IGROV1 ovarian
# [17] = test system: K-562 leukemia
# [18] = test system: LOX IMVI melanoma
# [19] = test system: M14 melanoma
# [20] = test system: MALME-3M melanoma
# [21] = test system: MCF7 breast
# [22] = test system: MDA-MB-231 breast
# [23] = test system: MDA-MB-435 melanoma
# [24] = test system: MDA-MB-468 breast
# [25] = test system: MOLT-4 leukemia
# [26] = test system: NCI-H226 lung
# [27] = test system: NCI-H23 lung
# [28] = test system: NCI-H322M lung
# [29] = test system: NCI-H460 NSCLC
# [30] = test system: NCI-H522 lung
# [31] = test system: NCI/ADR-RES ovarian
# [32] = test system: OVCAR-3 ovarian
# [33] = test system: OVCAR-4 ovarian
# [34] = test system: OVCAR-5 ovarian
# [35] = test system: OVCAR-8 ovarian
# [36] = test system: RPMI-8226 leukemia
# [37] = test system: RXF 393 renal
# [38] = test system: SF-268 CNS
# [39] = test system: SF-295 CNS
# [40] = test system: SF-539 CNS
# [41] = test system: SK-MEL-2 melanoma
# [42] = test system: SK-MEL-28 melanoma
# [43] = test system: SK-MEL-5 melanoma
# [44] = test system: SK-OV-3 ovarian
# [45] = test system: SN12C renal
# [46] = test system: SNB-19 CNS
# [47] = test system: SR leukemia
# [48] = test system: SW-620 colon
# [49] = test system: T-47D breast
# [50] = test system: TK-10 renal
# [51] = test system: U251 glioblastoma
# [52] = test system: UACC-257 melanoma
# [53] = test system: UO-31 renal
smiles,measurement,setting,value
C=C1C[C@@H]2CC[C@@]34C[C@H]5O[C@H]6[C@@H](O3)[C@H]3O[C@H](CC[C@@H]3O[C@H]6[C@@H]5O4)CC(=O)C[C@@H]3[C@@H](OC)[C@@H](C[C@H](O)CN)O[C@H]3C[C@H]3O[C@@H](CC[C@@H]1O2)C[C@@H](C)C3=C,GI50,[1],< 10 nM
same,TGI,[1],389 nM
same,GI50,[2],< 10 nM
same,TGI,[2],1100 nM
same,GI50,[3],< 10 nM
same,TGI,[3],186 nM
same,GI50,[4],73.3 nM
same,TGI,[4],> 100000 nM
same,GI50,[5],< 10 nM
same,TGI,[5],< 10 nM
same,GI50,[6],< 10 nM
same,TGI,[6],> 100000 nM
same,GI50,[7],< 10 nM
same,TGI,[7],< 10 nM
same,GI50,[8],< 10 nM
same,TGI,[8],16.6 nM
same,GI50,[9],< 10 nM
same,TGI,[9],< 10 nM
same,GI50,[10],< 10 nM
same,TGI,[10],< 10 nM
same,GI50,[11],< 10 nM
same,TGI,[11],219 nM
same,GI50,[12],69 nM
same,TGI,[12],3500 nM
same,GI50,[13],< 10 nM
same,TGI,[13],< 10 nM
same,GI50,[14],< 10 nM
same,TGI,[14],3340 nM
same,GI50,[15],< 10 nM
same,TGI,[15],52.8 nM
same,GI50,[16],< 10 nM
same,TGI,[16],> 100000 nM
same,GI50,[17],< 10 nM
same,TGI,[17],12.9 nM
same,GI50,[18],< 10 nM
same,TGI,[18],43.3 nM
same,GI50,[19],< 10 nM
same,TGI,[19],2720 nM
same,GI50,[20],< 10 nM
same,TGI,[20],> 100000 nM
same,GI50,[21],< 10 nM
same,TGI,[21],596 nM
same,GI50,[22],< 10 nM
same,TGI,[22],165 nM
same,GI50,[23],< 10 nM
same,TGI,[23],< 10 nM
same,GI50,[24],< 10 nM
same,TGI,[24],< 10 nM
same,GI50,[25],< 10 nM
same,TGI,[25],< 10 nM
same,GI50,[26],< 10 nM
same,TGI,[26],206 nM
same,GI50,[27],< 10 nM
same,TGI,[27],< 10 nM
same,GI50,[28],< 10 nM
same,TGI,[28],> 100000 nM
same,GI50,[29],< 10 nM
same,TGI,[29],< 10 nM
same,GI50,[30],< 10 nM
same,TGI,[30],< 10 nM
same,GI50,[31],1900 nM
same,TGI,[31],5950 nM
same,GI50,[32],< 10 nM
same,TGI,[32],< 10 nM
same,GI50,[33],< 10 nM
same,TGI,[33],974 nM
same,GI50,[34],< 10 nM
same,TGI,[34],> 100000 nM
same,GI50,[35],< 10 nM
same,TGI,[35],27.6 nM
same,GI50,[36],< 10 nM
same,TGI,[36],< 10 nM
same,GI50,[37],< 10 nM
same,TGI,[37],< 10 nM
same,GI50,[38],< 10 nM
same,TGI,[38],40 nM
same,GI50,[39],22.9 nM
same,TGI,[39],246 nM
same,GI50,[40],< 10 nM
same,TGI,[40],< 10 nM
same,GI50,[41],< 10 nM
same,TGI,[41],< 10 nM
same,GI50,[42],< 10 nM
same,TGI,[42],> 100000 nM
same,GI50,[43],< 10 nM
same,TGI,[43],< 10 nM
same,GI50,[44],< 10 nM
same,TGI,[44],84.9 nM
same,GI50,[45],< 10 nM
same,TGI,[45],> 100000 nM
same,GI50,[46],< 10 nM
same,TGI,[46],41.2 nM
same,GI50,[47],< 10 nM
same,TGI,[47],< 10 nM
same,GI50,[48],< 10 nM
same,TGI,[48],> 100000 nM
same,GI50,[49],< 10 nM
same,TGI,[49],> 100000 nM
same,GI50,[50],52.8 nM
same,TGI,[50],> 100000 nM
same,GI50,[51],< 10 nM
same,TGI,[51],14.1 nM
same,GI50,[52],< 10 nM
same,TGI,[52],85300 nM
same,GI50,[53],225 nM
same,TGI,[53],> 100000 nM
